The nature of this data set: Solubility of doxorubicin in PBS (absorbance 495 nm). It counts as physicochemical. As to conditions: FIG. 38. How it is done:
Determination of doxorubicin content: 600, 300, 150, 75, 37.5, 18.75, 9.375, and 0 μg/mL DOX was formulated as a standard curve. 5 mg of doxorubicin hydrochloride was weighed and added to 1 mL of PBS. 10 mg of DOX-PLP was weighed and added to 100 μL of PBS. After dissolving by vortexing, the mixture was centrifuged at 21,000 for 10 min, and the supernatant was diluted to an appropriate multiple. The absorbance value was measured at 495 nm, and the DOX content was calculated based on the absorbance value of the standard curve.

Structures can show the parent of a compound that is named as a salt.

The values below come from patent US20240269301A1, “METHOD FOR INITIATING POLYMERIZATION OF AMINO ACID N-CARBOXYANHYDRIDES IN AQUEOUS PHASE” (PEKING UNIVERSITY, priority 2021, published 2024).

`COc1cccc2c1C(=O)c1c(O)c3c(c(O)c1C2=O)C[C@@](O)(C(=O)CO)C[C@@H]3O[C@H]1C[C@H](N)[C@H](O)[C@H](C)O1` [doxorubicin hydrochloride]: the solubility limit is 573±22 μg/mL DOX.
